According to patent US11505558B1, “Antiviral heterocyclic compounds” (Enanta Pharmaceuticals, Inc., priority 2019, dated 2022):

Key:
[1] = system: recombinant HMPV CAN97-83 (MPV-GFP1); test: HMPV antiviral assay (MPV-GFP1 eGFP fluorescence in Vero E6 cells); type: cell-based; settings: human metapneumovirus, Vero C1008, 120 h, read-out: HMPV EC50
Method in brief: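 Vero E6 cells in serum-free OptiMEM with 0.5 μg/mL TPCK-trypsin infected with eGFP-expressing HMPV CAN97-83 (MPV-GFP1) at MOI 0.05. 8-point […] ½-step dilutions from 8 or 2 μM, 0.5% DMSO, 5 days at 32 °C. eGFP fluorescence normalized to infected untreated wells; EC50 from four-parameter logistic fit.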

[2] = system: genotype A, "Long" strain RSV; test: RSV-A assay (CPE, ATPlite readout in Hep-2 cells); type: cell-based; settings: human respiratory syncytial virus, HEp-2, Hep-2 cells, genotype A "Long" strain RSV, MOI 0.1; read-out: Human RSV-A (“Long” strain) EC50
Method in brief: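 Protection from RSV-induced cytopathic effect, measured as ATPlite luminescence after 5 days, gave EC50 values. Assay used genotype A Long strain at MOI 0.1 on Hep-2 cells seeded at 8,000/well in DMEM growth media with 10% FBS; compounds tested as 2-fold dilutions in duplicate.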

HRSV = settings: prophylactic use, high risk infants; cited from earlier work

| Molecule | EC50 [1] [nM] | EC50 [2] [nM] | effective in reducing hospitalizations (HRSV) [%] |
| --- | --- | --- | --- |
| Cc1cnc2c(NC(=O)c3cnc(C)o3)cc(C(=O)NC[C@](O)(c3cc4c(c(-c5ccc(F)cc5)n3)OC[C@]4(C)C(N)=O)C(F)(F)F)cc2c1 [Example 624] | < 500 | < 200 |  |
| Cc1ccc2cc(C(=O)NC[C@](O)(c3cc4c(c(-c5ccc(F)cc5)n3)OC[C@]4(C)C(N)=O)C(F)(F)F)cc(NC(=O)C3CC3)c2n1 [Example 626] | > 500 | < 200 |  |
| Cc1ccc2cc(C(=O)NC[C@](O)(c3cc4c(c(-c5ccc(F)cc5)n3)OC[C@]4(C)C(N)=O)C(F)(F)F)cc(NC(=O)C3(F)CC3)c2n1 [Example 627] | > 500 | < 200 |  |
| C[C@]1(C(N)=O)COc2c1cc([C@@](O)(CNC(=O)c1cc(Cl)c3nc(N)sc3c1)C(F)(F)F)nc2-c1ccc(F)cc1 [Example 633] | < 500 | < 200 |  |
| COc1cc(C(=O)NC[C@](O)(c2cc3c(c(-c4ccc(F)cc4)n2)OC[C@]3(C)C(=O)NCC(C)(C)O)C(F)(F)F)cc2cn(C)nc12 [Example 635] | < 500 | < 200 |  |
| Cn1cc2cc(C(=O)NC[C@](O)(c3cc4c(c(-c5ccc(F)c(Cl)c5)n3)OC[C@]4(C)C(N)=O)C3CC3)ccc2n1 [Example 638] | < 500 | < 200 |  |
| Cn1cc2cc(C(=O)NC[C@](O)(c3cc4c(c(-c5ccc(F)cc5)n3)OC[C@]4(C)C(=O)NCC(C)(C)O)C(F)(F)F)ccc2n1 [Example 640] | > 500 | < 200 |  |
| Cc1ccc(-c2nc([C@@](O)(CNC(=O)c3ccc4nn(C)cc4c3)C(F)(F)F)cc3c2OC[C@]3(C)C(N)=O)cc1 [Example 641] | > 500 | < 200 |  |
| Cn1cc2cc(C(=O)NC[C@](O)(c3cc4c(c(-c5ccc(F)cc5)n3)OC[C@]4(C)C(=O)NCC(C)(C)O)C3CC3)ccc2n1 [Example 642] | > 500 | < 200 |  |
| COc1cc(C(=O)NC[C@](O)(c2cc3c(c(-c4ccc(F)cc4)n2)OCC3(F)C(N)=O)C(F)(F)F)cc2cc(Cl)c(C)nc12 (stereo partly drawn) [Example 668] | < 500 | < 200 |  |
| COc1cc(C(=O)NC[C@](O)(c2cc3c(c(-c4ccc(F)cc4)n2)OCC3(F)C(N)=O)C(F)(F)F)cc2cccnc12 (stereo partly drawn) [Example 669] | > 500 | < 200 |  |
| COc1cc(C(=O)NC[C@](O)(c2cc3c(c(-c4ccc(F)cc4)n2)OCC3(F)C(N)=O)C(F)(F)F)cc2cn(C(F)F)nc12 (stereo partly drawn) [Example 670] | < 500 | < 200 |  |
| COc1cc(C(=O)NC[C@](O)(c2cc3c(c(-c4ccc(F)cc4)n2)OCC3(F)C(N)=O)C(F)(F)F)cc2cn(C3CC3)nc12 (stereo partly drawn) [Example 676] | < 500 | < 200 |  |
| Palivizumab |  |  | 60 |
